We go through 20 molecules from ChEMBL document CHEMBL3431459, “Roche carnitine palmitoyltransferase modulator screening data (supplementary data associated with the publication CHEMBL2216752)”.

For assay [1], the target named is T1, Carnitine O-palmitoyltransferase 1, liver isoform (Rattus norvegicus, UniProt P32198).
T1 sequence (P32198 whole entry): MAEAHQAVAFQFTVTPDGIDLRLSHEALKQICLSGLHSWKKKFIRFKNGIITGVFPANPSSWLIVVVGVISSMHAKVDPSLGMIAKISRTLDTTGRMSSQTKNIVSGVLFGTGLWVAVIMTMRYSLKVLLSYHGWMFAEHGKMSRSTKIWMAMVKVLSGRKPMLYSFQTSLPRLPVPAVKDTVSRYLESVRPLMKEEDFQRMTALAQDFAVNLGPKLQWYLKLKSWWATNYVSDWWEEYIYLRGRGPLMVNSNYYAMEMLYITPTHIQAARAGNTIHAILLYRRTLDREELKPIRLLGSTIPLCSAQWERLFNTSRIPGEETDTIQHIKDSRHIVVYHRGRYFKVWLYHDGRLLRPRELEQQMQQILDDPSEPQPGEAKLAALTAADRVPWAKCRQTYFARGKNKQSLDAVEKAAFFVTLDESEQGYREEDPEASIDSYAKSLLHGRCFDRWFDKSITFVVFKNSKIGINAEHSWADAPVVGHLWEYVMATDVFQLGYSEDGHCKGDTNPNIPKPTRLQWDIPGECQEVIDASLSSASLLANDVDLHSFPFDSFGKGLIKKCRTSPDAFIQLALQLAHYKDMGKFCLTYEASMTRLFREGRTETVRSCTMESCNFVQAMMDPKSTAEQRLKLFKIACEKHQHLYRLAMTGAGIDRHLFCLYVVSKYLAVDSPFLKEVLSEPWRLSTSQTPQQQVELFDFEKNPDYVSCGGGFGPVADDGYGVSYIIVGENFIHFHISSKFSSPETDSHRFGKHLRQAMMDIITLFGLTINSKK
Kind of assay: (§1) SUPPLEMENTARY: Inhibition of Carnitine palmitoyltransferase 1, liver isoform.

Assay [2] has as its target T2, Carnitine O-palmitoyltransferase 2, mitochondrial (Homo sapiens, UniProt P23786).
T2 sequence (P23786 whole entry): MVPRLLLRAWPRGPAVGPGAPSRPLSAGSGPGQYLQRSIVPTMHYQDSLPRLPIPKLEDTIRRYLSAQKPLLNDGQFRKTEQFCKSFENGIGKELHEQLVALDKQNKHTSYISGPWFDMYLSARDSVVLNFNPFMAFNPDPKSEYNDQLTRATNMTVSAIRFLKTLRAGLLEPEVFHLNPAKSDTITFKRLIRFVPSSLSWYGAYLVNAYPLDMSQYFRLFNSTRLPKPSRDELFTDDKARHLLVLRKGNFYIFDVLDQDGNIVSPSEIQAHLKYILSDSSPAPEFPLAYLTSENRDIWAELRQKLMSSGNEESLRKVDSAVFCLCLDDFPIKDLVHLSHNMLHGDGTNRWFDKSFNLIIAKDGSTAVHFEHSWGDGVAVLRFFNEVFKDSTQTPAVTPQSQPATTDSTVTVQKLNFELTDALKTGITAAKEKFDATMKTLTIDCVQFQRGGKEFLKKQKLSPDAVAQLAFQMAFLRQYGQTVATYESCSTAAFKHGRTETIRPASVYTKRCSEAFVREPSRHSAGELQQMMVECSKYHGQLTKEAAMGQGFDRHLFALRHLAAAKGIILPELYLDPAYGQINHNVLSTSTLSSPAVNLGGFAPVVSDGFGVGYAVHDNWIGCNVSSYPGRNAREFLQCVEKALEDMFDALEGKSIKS
Kind of assay: (§2) SUPPLEMENTARY: Inhibition of Carnitine palmitoyltransferase 2.

The target in assay [3] is T3, Carnitine O-palmitoyltransferase 1, liver isoform (Homo sapiens, UniProt P50416).
T3 sequence (P50416 whole entry): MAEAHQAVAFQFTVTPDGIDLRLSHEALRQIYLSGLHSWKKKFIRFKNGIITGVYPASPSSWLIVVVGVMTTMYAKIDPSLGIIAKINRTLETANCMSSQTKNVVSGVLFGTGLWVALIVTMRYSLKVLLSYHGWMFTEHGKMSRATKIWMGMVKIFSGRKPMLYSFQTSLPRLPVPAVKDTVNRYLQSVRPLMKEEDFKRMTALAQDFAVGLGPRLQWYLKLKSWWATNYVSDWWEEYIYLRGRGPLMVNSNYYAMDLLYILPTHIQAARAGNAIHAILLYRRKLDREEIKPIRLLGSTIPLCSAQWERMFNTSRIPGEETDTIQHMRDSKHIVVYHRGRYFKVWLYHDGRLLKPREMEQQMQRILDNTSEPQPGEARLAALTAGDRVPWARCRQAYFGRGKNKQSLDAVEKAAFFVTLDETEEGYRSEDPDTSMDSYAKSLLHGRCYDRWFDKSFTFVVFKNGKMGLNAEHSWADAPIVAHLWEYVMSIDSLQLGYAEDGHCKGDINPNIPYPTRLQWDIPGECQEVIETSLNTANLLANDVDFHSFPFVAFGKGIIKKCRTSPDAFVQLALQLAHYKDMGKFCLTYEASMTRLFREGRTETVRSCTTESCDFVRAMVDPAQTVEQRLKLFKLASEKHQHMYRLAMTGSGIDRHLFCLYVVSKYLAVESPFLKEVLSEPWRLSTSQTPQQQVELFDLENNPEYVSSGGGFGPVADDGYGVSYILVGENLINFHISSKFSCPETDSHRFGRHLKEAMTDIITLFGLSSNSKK
Described as §1.

Assay [4] deals with T4, Carnitine O-palmitoyltransferase 1, muscle isoform (Homo sapiens, UniProt Q92523).
T4 sequence (Q92523 whole entry): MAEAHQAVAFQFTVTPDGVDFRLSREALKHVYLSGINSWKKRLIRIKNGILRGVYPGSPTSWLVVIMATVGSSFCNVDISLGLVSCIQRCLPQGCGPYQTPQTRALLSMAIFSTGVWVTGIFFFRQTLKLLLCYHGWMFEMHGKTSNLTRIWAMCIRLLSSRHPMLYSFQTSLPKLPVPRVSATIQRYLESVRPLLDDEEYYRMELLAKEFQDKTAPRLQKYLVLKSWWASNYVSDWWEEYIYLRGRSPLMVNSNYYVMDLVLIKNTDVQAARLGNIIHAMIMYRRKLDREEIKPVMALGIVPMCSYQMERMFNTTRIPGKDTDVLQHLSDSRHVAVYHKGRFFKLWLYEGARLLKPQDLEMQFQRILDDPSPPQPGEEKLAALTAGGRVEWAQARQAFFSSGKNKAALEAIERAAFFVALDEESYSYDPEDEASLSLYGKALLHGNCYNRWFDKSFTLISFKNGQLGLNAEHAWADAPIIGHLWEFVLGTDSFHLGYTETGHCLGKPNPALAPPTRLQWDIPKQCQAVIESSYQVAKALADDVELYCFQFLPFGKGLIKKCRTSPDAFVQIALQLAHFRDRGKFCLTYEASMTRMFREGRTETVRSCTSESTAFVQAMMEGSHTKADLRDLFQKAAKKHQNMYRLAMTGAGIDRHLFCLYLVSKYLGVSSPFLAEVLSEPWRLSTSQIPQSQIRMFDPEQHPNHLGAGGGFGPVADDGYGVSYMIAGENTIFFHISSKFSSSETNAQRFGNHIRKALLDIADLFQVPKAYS
The assay can be described thus: SUPPLEMENTARY: Inhibition of Carnitine palmitoyltransferase 1, muscle isoform. On the set-up: species or system Muscle tissue.

The target in assay [5] is T5, Carnitine O-palmitoyltransferase 2, mitochondrial (Rattus norvegicus, UniProt P18886).
T5 sequence (P18886 whole entry): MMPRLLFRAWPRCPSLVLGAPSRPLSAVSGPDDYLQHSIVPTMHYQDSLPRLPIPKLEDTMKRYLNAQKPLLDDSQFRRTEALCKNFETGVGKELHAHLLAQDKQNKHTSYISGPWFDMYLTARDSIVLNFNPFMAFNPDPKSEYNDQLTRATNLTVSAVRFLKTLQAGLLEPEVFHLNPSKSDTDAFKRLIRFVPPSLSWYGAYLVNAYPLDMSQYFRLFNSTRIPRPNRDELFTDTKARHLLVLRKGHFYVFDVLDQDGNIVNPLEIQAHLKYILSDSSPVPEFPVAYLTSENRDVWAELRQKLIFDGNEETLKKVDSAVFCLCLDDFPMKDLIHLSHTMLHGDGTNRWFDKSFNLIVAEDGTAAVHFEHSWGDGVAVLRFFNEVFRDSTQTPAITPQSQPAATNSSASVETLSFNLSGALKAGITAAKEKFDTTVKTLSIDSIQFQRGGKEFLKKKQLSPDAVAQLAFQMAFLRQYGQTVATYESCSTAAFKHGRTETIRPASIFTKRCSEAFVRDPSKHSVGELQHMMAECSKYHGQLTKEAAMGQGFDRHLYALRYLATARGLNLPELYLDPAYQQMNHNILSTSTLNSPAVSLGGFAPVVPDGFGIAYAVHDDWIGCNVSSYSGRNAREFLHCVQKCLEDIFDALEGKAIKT
The description is as §2.

By IC50 is commonly meant the concentration at which inhibition is half-maximal. Lower therefore signals greater potency in that assay.

In assay [1], `COc1ccc(C)cc1S(=O)(=O)N1CCCc2ccc(C(=O)Nc3ccc(CC(=O)O)cc3)cc21` yielded an IC50 of 0.186 µM.

For `O=C(COc1ccccc1)N1CCCCC1c1ncc(-c2cccc([N+](=O)[O-])c2)s1` (configuration not stated), the IC50 in assay [2] is greater than 100 µM; in assay [1], 0.958 µM; in assay [3] it was 0.206 µM; in assay [4] it was greater than 100 µM.

On to `O=C(COc1ccccc1)N1CCCCC1c1cc(=O)n(-c2ccc(F)cc2)[nH]1` (configuration not stated), for which the IC50 in assay [2] was greater than 100 µM; in assay [1], 1.58 µM; in assay [3] it was 0.281 µM; in assay [4], greater than 100 µM.

For the molecule `COC(=O)c1cccc(-c2csc([C@H]3CCCCN3C(=O)COc3ccccc3)n2)n1`, the IC50 in assay [2] was 16.8 µM; in assay [5], greater than 100 µM; in assay [1], 0.172 µM; in assay [4] it was 7.62 µM.

`O=C1Cc2cc(-c3csc([C@H]4CCCCN4C(=O)COc4ccccc4)n3)ccc2N1`: the IC50 is 0.686 µM in assay [2], 42.8 µM in assay [5], 0.154 µM in assay [1] and greater than 100 µM in assay [4].

As to `CC(=O)Nc1ccc(-c2csc([C@H]3CCCCN3C(=O)COc3ccccc3)n2)cc1`, the IC50 in assay [2] was 3.68 µM; in assay [5], greater than 100 µM; in assay [1], 0.12 µM; in assay [4], greater than 100 µM.

For the molecule `O=C(COc1ccccc1)N1CCCC[C@@H]1c1nc(-c2ccc(O)cc2)cs1`, the IC50 was greater than 100 µM in assay [2], greater than 100 µM in assay [5], 0.227 µM in assay [1] and 34.5 µM in assay [4].

On to `O=C(COc1ccccc1)N1CCCC[C@@H]1c1nc(-c2ccc3c(c2)OCO3)cs1`, for which the IC50 in assay [2] was 56 µM; in assay [5] it was greater than 100 µM; in assay [1], 0.224 µM; in assay [4], greater than 100 µM.

`N#Cc1cccc(-c2csc([C@H]3CCCCN3C(=O)COc3ccccc3)n2)c1`: the IC50 in assay [2] came to 6.55 µM; in assay [5], 68.1 µM; in assay [1], 0.128 µM; in assay [4], 8.1 µM.

As for `O=C(COc1ccccc1)N1CCCC[C@@H]1c1nc(-c2ccc(Br)s2)cs1`, the IC50 was 47.9 µM in assay [2], greater than 100 µM in assay [5], 1.36 µM in assay [1] and 5.66 µM in assay [4].

Take `O=C(O)c1cccc(-c2csc([C@H]3CCCCN3C(=O)COc3ccccc3)n2)n1`: the IC50 in assay [2] turned out to be 81.3 µM; in assay [5] it was 99.1 µM; in assay [1], 0.301 µM; in assay [4], 19.5 µM.

Turning to `O=C(COc1ccccc1)N1CCCC[C@@H]1c1csc(-c2ccc(C(F)(F)F)cn2)n1`, the IC50 in assay [2] was 49.8 µM; in assay [5], greater than 100 µM; in assay [1], 2 µM; in assay [4], greater than 100 µM.

With `O=C(COc1ccccc1)N1CCCC[C@@H]1c1csc(-c2cnccn2)n1`, the IC50 in assay [2] was 32.7 µM; in assay [5], 88.9 µM; in assay [1], 0.589 µM; in assay [4], 59.8 µM.

For the molecule `O=C(COc1ccccc1)N1CCCC[C@@H]1c1csc(Cc2ccc(Cl)cc2)n1`, the IC50 in assay [2] is greater than 100 µM; in assay [5], greater than 100 µM; in assay [1] it was 2.9 µM; in assay [4] it was greater than 100 µM.

For the molecule `O=C(COc1ccccc1)N1CCCC[C@@H]1c1csc(-c2cccnc2)n1`, the IC50 is greater than 100 µM in assay [2], 52.2 µM in assay [5], 0.0627 µM in assay [1] and 4.16 µM in assay [4].

On to `O=C(COc1ccccc1)N1CCCC[C@@H]1c1csc(-c2ccncc2)n1`, for which the IC50 in assay [2] is greater than 100 µM; in assay [5] it was 79.6 µM; in assay [1] it was 0.219 µM; in assay [4], greater than 100 µM.

Turning to `O=C(COc1ccccc1)N1CCCC[C@@H]1c1csc(C2COc3ccccc3O2)n1` (some centres not stated), the IC50 in assay [2] is greater than 100 µM; in assay [5], greater than 100 µM; in assay [1], 3.62 µM; in assay [4] it was greater than 100 µM.

Consider `O=C(COc1ccccc1)N1CCCC[C@@H]1c1csc(-c2ccc(F)cc2)n1`, for which the IC50 in assay [2] was greater than 100 µM; in assay [5] it was greater than 100 µM; in assay [1], 0.44 µM; in assay [4], greater than 100 µM.

Regarding `COC(=O)c1ccc(-c2nc([C@H]3CCCCN3C(=O)COc3ccccc3)cs2)cc1`, the IC50 in assay [2] is greater than 100 µM; in assay [5] it was greater than 100 µM; in assay [1], 1.21 µM; in assay [4], greater than 100 µM.

In the case of `O=C(O)c1ccc(-c2nc([C@H]3CCCCN3C(=O)COc3ccccc3)cs2)cc1`, the IC50 in assay [2] was 5.1 µM; in assay [5], greater than 100 µM; in assay [1], 2.23 µM; in assay [4], greater than 100 µM.
